Assay results: patent publication US12319679B2, “Morpholinyl, piperazinyl, oxazepanyl and diazepanyl O-glycoprotein-2-acetamido-2-deoxy-3-d-glucopyranosidase inhibitors” (BIOGEN MA INC., priority 2018, dated 2025)
pIC50: −log10 of the molar value. Counter-ions that a name gives are not always drawn.

Each compound was assayed against T1, Recombinant full length human OGA enzyme (Homo sapiens, UniProt O60502) (assay: OGA Enzyme Inhibition Biochemical Assay). Conditions: 1 nM OGA, 100 μM 4-MUGlcNAc (Km), pH 6.4, 90 minutes at room temperature; 10-point dose-response starting from 20 μM.
T1 construct: Recombinant full length human OGA enzyme was purchased from Origene; purchased Origene
T1 sequence (O60502 1-916): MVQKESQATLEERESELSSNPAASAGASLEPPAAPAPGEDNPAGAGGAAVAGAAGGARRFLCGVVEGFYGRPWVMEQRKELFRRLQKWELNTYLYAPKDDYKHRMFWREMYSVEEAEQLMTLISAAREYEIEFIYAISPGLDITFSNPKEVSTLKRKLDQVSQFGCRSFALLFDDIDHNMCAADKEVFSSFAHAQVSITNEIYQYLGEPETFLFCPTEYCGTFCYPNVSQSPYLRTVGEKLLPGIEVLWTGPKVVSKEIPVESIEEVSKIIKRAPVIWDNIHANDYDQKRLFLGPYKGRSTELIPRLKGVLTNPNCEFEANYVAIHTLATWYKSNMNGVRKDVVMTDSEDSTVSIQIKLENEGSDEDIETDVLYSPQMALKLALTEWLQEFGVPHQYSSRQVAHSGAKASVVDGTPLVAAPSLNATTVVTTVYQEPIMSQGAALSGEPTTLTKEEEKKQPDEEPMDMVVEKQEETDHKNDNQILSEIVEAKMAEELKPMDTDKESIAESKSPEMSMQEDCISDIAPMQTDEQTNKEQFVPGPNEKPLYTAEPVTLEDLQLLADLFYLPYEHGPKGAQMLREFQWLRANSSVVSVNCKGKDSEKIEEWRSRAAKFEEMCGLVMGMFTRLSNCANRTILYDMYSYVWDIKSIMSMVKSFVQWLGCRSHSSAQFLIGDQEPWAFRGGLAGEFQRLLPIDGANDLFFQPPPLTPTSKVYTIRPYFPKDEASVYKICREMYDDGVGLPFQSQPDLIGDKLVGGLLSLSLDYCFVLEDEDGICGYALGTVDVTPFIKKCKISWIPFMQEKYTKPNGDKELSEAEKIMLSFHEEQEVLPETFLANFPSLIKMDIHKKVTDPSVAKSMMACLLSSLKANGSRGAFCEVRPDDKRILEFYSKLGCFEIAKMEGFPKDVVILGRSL
Experimental: OGA Enzyme Inhibition Biochemical Assay
Recombinant full length human OGA enzyme was purchased from Origene. 4-MUGlCNAc substrate was purchased from Sigma. All other reagents were purchased from Sigma or Fisher. Assay buffer consists of the McIlvaine buffer system, pH 6.4 (0.2M Na2HPO4 mixed with 0.1M citric acid) and 0.01% BSA. Reactions consist of 1 nM OGA, 100 μM 4-MUGlcNAc (Km), and compound in a final volume of 10 μl. Reactions were incubated for 90 minutes at room temperature and quenched with 40 μl of 3M glycine, pH 10 and read on a Perkin Elmer Envision plate reader (Ex: 355 nm/Em: 460 nm). Compounds were tested with a 10-point dose-response starting from 20 μM with a 4-fold dilution. Data was fit using GraphPad Prism using a 4-paramter fit with variable slope.

pIC50	SMILES
< 4.70	CC(=O)Nc1ncc(CN2CCCN(C(C)=O)C(Cc3cc(C)nc(C)c3)C2)s1 (centres unmarked) [Example 2-29, N-(5-((4-acetyl-3-((2,6-dimethylpyridin-4-yl)methyl)-1,4-diazepan-1-yl)methyl)thiazol-2-yl)acetamide]
6.80	CC(=O)Nc1ncc(CN2CCOC(C(C)c3ncc(F)cn3)C2)s1 (single isomer, unassigned) [Example 1-25 Peak 3]
6.18	CC(=O)Nc1ncc(CN2CCN(C)[C@@H](Cc3ccnc(C)c3)C2)s1 [Example 4-10, (S)—N-(5-((4-methyl-3-((2-methylpyridin-4-yl)methyl)piperazin-1-yl)methyl)thiazol-2-yl)acetamide]
6.80	CC(=O)Nc1ncc(CN2CCO[C@H](Cc3ccnc(OCC(F)(F)F)c3)C2)s1 [Example 1-10]
5.00	CC(=O)Nc1ncc(CN2CCCNC(Cc3ccnc(C)c3)C2)s1 (centres unmarked) [Example 2-27, N-(5-((3-((2-methylpyridin-4-yl)methyl)-1,4-diazepan-1-yl)methyl)thiazol-2-yl)acetamide]
6.70	CC(=O)Nc1ncc(CN2CCO[C@H](Cc3cc(C)c(F)cn3)C2)s1 [Example 1-18, (R)—N-(5-((2-((5-fluoro-4-methylpyridin-2-yl)methyl)morpholino)methyl)thiazol-2-yl)acetamide]
7.66	CC(=O)Nc1ncc(CN2C[C@@H](Cc3cc(C)nc(C)n3)NC[C@@H]2C)s1 [Example 2-13]
7.35	CC(=O)Nc1ncc(CN2CCCOC(Cc3ncc(F)cn3)C2)s1 (racemic) [Example 1-38, N-(5-((2-((5-fluoropyrimidin-2-yl)methyl)-1,4-oxazepan-4-yl)methyl)thiazol-2-yl)acetamide]
7.42	CC(=O)Nc1ncc(CN2C[C@@H](COc3cc(C)nc(C)c3)N(C)C[C@@H]2C)s1 [Example 3-2, N-(5-(((2S,5S)-5-(((2,6-dimethylpyridin-4-yl)oxy)methyl)-2,4-dimethylpiperazin-1-yl)methyl)thiazol-2-yl)acetamide]
6.96	COc1nccc(C[C@@H]2CN(Cc3cnc(NC(C)=O)s3)CCO2)n1 [Example 1-7, (R)—N-(5-((2-((2-methoxypyrimidin-4-yl)methyl)morpholino)methyl)thiazol-2-yl)acetamide]
7.72	CC(=O)Nc1ncc(CN2C[C@@H](Cc3ncc(F)cn3)NC[C@@H]2C)s1 [Example 2-5]
6.12	CC(=O)Nc1ncc(CN2CCCOC(Cc3ncc(F)cn3)C2)s1 (single isomer, unassigned) [Example 1-39 Peak 2]
7.41	COc1cc(CC2CN(Cc3cnc(NC(C)=O)s3)CCCO2)ccn1 (single isomer, unassigned) [Example 1-41 Peak 1]
5.25	CC(=O)Nc1ncc(CN2CCCNC(Cc3ncc(F)cn3)C2)s1 (centres unmarked) [Example 2-23, N-(5-((3-((5-fluoropyrimidin-2-yl)methyl)-1,4-diazepan-1-yl)methyl)thiazol-2-yl)acetamide]
5.18	CC(=O)Nc1ncc(CN2C[C@@H](Cc3ncc(F)cn3)OC[C@H]2C)s1 [Example 1-27]
5.15	CC(=O)Nc1ncc(CN2CCN[C@H](Cc3cc(C)nc(C)c3)C2)s1 [Example 4-1, (R)—N-(5-((3-((2,6-dimethylpyridin-4-yl)methyl)piperazin-1-yl)methyl)thiazol-2-yl)acetamide hydrochloride]
6.74	CCN1C[C@H](C)N(Cc2cnc(NC(C)=O)s2)C[C@H]1Cc1ccc(C)nc1 [Example 2-12, N-(5-(((2S,5R)-4-ethyl-2-methyl-5-((6-methylpyridin-3-yl)methyl)piperazin-1-yl)methyl)thiazol-2-yl)acetamide]
7.38	COc1cc(CC2COCCN(Cc3cnc(NC(C)=O)s3)C2)ccn1 (racemic) [Example 1-46, N-(5-((6-((2-methoxypyridin-4-yl)methyl)-1,4-oxazepan-4-yl)methyl)thiazol-2-yl)acetamide]
4.96	COc1cc(CC2CN(Cc3cnc(NC(C)=O)s3)CCN2)ccc1F (single isomer, unassigned) [Example 4-6 Peak 1]

pIC50	SMILES
5.36	CC(=O)Nc1ncc(CN2CCNC(Cc3ccc(C)nc3)C2)s1 (single isomer, unassigned) [Example 4-14 Peak 2]
7.51	CC(=O)Nc1ncc(CN2CCCOC(Cc3cc(C)nc(C)c3)C2)s1 (single isomer, unassigned) [Example 1-37 Peak 1]
6.70	CC(=O)Nc1ncc(CN2CCN(C)[C@@H](Cc3cc(C)nc(C)c3)C2)s1 [Example 4-4, (S)—N-(5-((3-((2,6-dimethylpyridin-4-yl)methyl)-4-methylpiperazin-1-yl)methyl)thiazol-2-yl)acetamide]
8.04	CC(=O)Nc1ncc(CN2C[C@@H](Cc3cc(C)nc(C)c3)NC[C@@H]2C)s1 [Example 2-8, N-(5-(((2S,5R)-5-((2,6-dimethylpyridin-4-yl)methyl)-2-methylpiperazin-1-yl)methyl)thiazol-2-yl)acetamide]
7.59	CCN1C[C@H](C)N(Cc2cnc(NC(C)=O)s2)C[C@H]1Cc1ccnc(C)c1 [Example 2-3, N-(5-(((2S,5R)-4-ethyl-2-methyl-5-((2-methylpyridin-4-yl)methyl)piperazin-1-yl)methyl)thiazol-2-yl)acetamide]
6.59	CC(=O)Nc1ncc(CN2CCO[C@H](Cc3ccnc(C(F)F)c3)C2)s1 [Example 1-13]
6.96	CC(=O)Nc1ncc(CN2CCCOC(Cc3cc(C)nc(C)c3)C2)s1 (single isomer, unassigned) [Example 1-37 Peak 2]
5.17	CC(=O)Nc1ncc(CN2CCNC(Cc3ccnc(C)c3)C2)s1 (single isomer, unassigned) [Example 4-8 Peak 1]
5.82	COc1nccc(CC2CN(Cc3cnc(NC(C)=O)s3)CCN2)c1F (single isomer, unassigned) [Example 4-18 Peak 2]
5.36	CC(=O)Nc1ncc(CN2CCO[C@@H](Cc3ncc(F)cn3)C2)s1 [Example 1-2, (S)—N-(5-((2-((5-fluoropyrimidin-2-yl)methyl)morpholino)methyl)thiazol-2-yl)acetamide]
7.35	CC(=O)Nc1ncc(CN2C[C@@H](Cc3ccc(C)nc3)N(C)C[C@@H]2C)s1 [Example 2-11, N-(5-(((2S,5R)-2,4-dimethyl-5-((6-methylpyridin-3-yl)methyl)piperazin-1-yl)methyl)thiazol-2-yl)acetamide]
< 4.70	CC(=O)Nc1ncc(CN2CCN(C)[C@H](Cc3ccc(C)nc3)C2)s1 [Example 4-15, (R)—N-(5-((4-methyl-3-((6-methylpyridin-3-yl)methyl)piperazin-1-yl)methyl)thiazol-2-yl)acetamide]
6.25	CC(=O)Nc1ncc(CN2CC(C)OC(Cc3ncc(F)cn3)C2)s1 (single isomer, unassigned) [Example 1-35 Peak 1]
6.25	CC(=O)Nc1ncc(CN2CCNC(Cc3ncc(F)cn3)C2)s1 (single isomer, unassigned) [Example 2-20 Peak 1]
8.29	CC(=O)Nc1ncc(CN2C[C@@H](Cc3ncc(F)cn3)OC[C@@H]2C)s1 [Example 1-26]
7.68	CC(=O)Nc1ncc(CN2C[C@@H](COc3cc(C)nc(C)c3)NC[C@@H]2C)s1 [Example 3-1, N-(5-(((2S,5S)-5-(((2,6-dimethylpyridin-4-yl)oxy)methyl)-2-methylpiperazin-1-yl)methyl)thiazol-2-yl)acetamide]
7.72	CC(=O)Nc1ncc(C(C)N2CCO[C@H](Cc3ncc(F)cn3)C2)s1 (single isomer, unassigned) [Example 1-23 Peak 1]
5.23	CC(=O)Nc1ncc(CN2C[C@@H](Cc3cc(C)nc(C)c3)N(C(C)=O)C[C@@H]2C)s1 [Example 2-15, N-(5-(((2S,5R)-4-acetyl-5-((2,6-dimethylpyridin-4-yl)methyl)-2-methylpiperazin-1-yl)methyl)thiazol-2-yl)acetamide]
7.49	CC(=O)Nc1ncc(CN2CCOCC(Cc3ncc(F)cn3)C2)s1 (racemic) [Example 1-44, N-(5-((6-((5-fluoropyrimidin-2-yl)methyl)-1,4-oxazepan-4-yl)methyl)thiazol-2-yl)acetamide]
